# Measured values from ChEMBL document CHEMBL1201862, “PubChem BioAssay data set” (2004).
# The source made the active and inactive calls.
# Assays:
# [1] = target: DNA repair and recombination protein RAD54-like (Homo sapiens, UniProt Q92698); test: inhibitors of human RAD54 branch migration, confirmation, biochemical, fluorescence, cherry-picked samples, dose series (AID 651657); assay type: functional
# [2] = target: T1, High affinity choline transporter 1 (Homo sapiens, UniProt Q9GZV3); test: CHT inhibitors, dose response, cell-based, 5-point CRC, membrane potential dye (AID 504840); assay type: functional
# T1 sequence (Q9GZV3 whole entry): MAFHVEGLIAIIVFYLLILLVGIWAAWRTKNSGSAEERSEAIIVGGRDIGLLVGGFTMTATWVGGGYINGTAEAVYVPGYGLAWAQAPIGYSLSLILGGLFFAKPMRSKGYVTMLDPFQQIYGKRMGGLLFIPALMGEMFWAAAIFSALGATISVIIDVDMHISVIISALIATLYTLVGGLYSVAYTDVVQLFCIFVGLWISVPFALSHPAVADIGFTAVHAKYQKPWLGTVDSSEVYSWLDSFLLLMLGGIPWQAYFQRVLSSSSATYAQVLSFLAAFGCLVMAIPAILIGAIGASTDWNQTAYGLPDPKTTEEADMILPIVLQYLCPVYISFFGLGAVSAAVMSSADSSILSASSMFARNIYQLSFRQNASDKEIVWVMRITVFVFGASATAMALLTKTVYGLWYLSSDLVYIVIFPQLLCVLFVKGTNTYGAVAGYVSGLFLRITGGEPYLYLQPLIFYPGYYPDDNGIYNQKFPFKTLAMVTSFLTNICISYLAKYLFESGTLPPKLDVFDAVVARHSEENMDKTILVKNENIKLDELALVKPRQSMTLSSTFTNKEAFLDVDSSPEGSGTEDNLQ
# [3] = target: T1, High affinity choline transporter 1; test: CHT inhibitors, dose response, cell-based, 10-point CRC, membrane potential dye (AID 588401); assay type: functional;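 further: membrane potential dye fluorescence of choline-evoked depolarization via CHT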
# [4] = target: T1, High affinity choline transporter 1; test: inhibitors of CHT choline uptake, dose response, cell-based, 3H-choline uptake, CHT LV-AA trafficking mutant, CRC (AID 602208); assay type: functional
# [5] = target: T2, Insulin-degrading enzyme (Homo sapiens, UniProt P14735); test: activators of endogenous IDE in HEK cells, dose response, cell-based, fluorescence polarization (AID 588439); assay type: functional
# T2 sequence (P14735 whole entry): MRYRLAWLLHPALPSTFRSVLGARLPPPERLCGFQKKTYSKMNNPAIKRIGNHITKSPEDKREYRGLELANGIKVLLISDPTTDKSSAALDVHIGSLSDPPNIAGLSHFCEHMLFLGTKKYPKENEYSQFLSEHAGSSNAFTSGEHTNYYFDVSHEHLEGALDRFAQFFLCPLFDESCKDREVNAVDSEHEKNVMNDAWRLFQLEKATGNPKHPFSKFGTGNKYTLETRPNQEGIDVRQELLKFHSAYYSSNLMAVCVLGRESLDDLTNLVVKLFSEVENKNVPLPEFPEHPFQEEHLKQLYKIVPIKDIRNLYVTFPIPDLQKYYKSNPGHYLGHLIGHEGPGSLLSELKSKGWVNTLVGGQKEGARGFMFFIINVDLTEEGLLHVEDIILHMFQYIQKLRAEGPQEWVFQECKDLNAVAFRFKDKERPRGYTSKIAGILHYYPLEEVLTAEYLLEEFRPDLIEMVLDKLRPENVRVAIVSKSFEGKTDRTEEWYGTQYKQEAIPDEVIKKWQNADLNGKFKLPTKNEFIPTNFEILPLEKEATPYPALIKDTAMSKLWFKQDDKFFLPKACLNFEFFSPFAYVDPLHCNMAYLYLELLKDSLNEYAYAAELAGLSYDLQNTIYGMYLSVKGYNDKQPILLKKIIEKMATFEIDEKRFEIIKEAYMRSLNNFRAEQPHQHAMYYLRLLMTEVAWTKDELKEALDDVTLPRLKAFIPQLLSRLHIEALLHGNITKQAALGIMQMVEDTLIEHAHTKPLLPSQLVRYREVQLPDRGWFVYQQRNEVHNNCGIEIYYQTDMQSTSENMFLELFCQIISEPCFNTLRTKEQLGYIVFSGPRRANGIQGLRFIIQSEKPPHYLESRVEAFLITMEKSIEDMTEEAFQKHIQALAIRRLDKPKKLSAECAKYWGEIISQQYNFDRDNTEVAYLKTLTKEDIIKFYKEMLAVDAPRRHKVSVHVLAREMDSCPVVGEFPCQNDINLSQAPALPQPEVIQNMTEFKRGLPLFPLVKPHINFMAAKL
# [6] = target: T3, Ubiquitin-conjugating enzyme E2 N (Homo sapiens, UniProt P61088); assay type: functional
# T3 sequence (P61088 whole entry): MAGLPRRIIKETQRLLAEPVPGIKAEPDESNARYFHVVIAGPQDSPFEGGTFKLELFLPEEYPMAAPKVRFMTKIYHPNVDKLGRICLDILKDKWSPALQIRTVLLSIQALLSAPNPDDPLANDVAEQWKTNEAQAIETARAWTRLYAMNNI
# [7] = tested on: HEK293; test: optical interference in Abeta FP readout, dose response, artefact control for IDE activator project, biochemical, fluorescence polarization (AID 588442); assay type: functional, cell-based; conditions: Homo sapiens
# [8] = NIH-3T3 fibroblast cytotoxicity, dose response, cytotoxicity control, cell-based, fluorescence, Alamar Blue, secondary assay (AID 2327); assay type: functional;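 further: NIH-3T3 mouse fibroblasts cultured with fluconazole at 8 µg/mL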
# [9] = target: T2, Insulin-degrading enzyme; test: activators of recombinant IDE enzyme, dose response, counter-screen for IDE activator project, biochemical, fluorescence polarization (AID 588681)
# [10] = tested on: HEK293; test: HEK cell cytotoxicity by LDH release, dose response, cytotoxicity control for IDE activator project, fluorescence, HEK cells (AID 588440); assay type: functional, cell-based; conditions: Homo sapiens;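 further: cytotoxicity by LDH release measuring loss of membrane integrity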
# [11] = target: T4, Apoptotic protease-activating factor 1 (Homo sapiens, UniProt O14727); assay type: functional
# T4 sequence (O14727 whole entry): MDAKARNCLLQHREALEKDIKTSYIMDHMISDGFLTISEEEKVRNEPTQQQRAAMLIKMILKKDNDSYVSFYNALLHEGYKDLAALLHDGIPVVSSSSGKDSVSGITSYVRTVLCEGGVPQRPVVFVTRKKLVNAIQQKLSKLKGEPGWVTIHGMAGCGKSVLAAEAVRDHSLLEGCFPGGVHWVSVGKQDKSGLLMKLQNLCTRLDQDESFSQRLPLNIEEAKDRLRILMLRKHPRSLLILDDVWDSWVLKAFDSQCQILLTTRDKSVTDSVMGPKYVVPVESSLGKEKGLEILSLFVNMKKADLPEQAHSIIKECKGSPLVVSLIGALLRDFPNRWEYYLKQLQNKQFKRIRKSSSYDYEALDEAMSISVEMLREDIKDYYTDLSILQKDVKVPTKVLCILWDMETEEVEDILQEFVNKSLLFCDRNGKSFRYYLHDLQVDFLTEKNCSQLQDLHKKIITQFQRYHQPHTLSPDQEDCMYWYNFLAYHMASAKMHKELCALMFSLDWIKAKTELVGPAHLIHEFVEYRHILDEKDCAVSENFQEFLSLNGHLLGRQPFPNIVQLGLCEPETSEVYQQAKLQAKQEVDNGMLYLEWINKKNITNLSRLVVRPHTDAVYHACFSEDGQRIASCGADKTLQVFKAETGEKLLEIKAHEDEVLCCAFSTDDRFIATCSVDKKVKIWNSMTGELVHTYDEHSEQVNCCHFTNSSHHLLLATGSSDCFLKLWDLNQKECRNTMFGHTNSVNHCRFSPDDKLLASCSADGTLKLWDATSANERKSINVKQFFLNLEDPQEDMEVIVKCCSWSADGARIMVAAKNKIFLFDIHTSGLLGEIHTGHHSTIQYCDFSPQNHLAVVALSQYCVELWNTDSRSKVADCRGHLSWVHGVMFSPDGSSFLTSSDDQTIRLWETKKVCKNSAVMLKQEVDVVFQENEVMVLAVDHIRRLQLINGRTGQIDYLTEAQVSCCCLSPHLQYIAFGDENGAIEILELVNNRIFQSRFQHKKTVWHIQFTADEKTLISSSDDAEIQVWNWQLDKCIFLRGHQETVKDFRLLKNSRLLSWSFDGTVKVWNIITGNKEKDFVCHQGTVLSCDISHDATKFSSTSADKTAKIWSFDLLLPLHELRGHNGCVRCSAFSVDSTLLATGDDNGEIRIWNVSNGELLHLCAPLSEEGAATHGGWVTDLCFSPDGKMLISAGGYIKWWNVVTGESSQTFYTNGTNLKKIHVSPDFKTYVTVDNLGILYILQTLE
# [12] = target: T3, Ubiquitin-conjugating enzyme E2 N; assay type: functional; remark: listed apart in the source
# [13] = C. albicans growth with fluconazole, confirmation, fluorescence, retest (AID 2467); assay type: functional, cell-based
# [14] = target: T5, Bcl-2-related protein A1 (Mus musculus, UniProt Q07440); assay type: functional;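 further: confirmatory dose–response counterscreen on Bfl-1, used to check hits from a UBC13 polyubiquitin inhibitor campaign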
# T5 sequence (Q07440 whole entry): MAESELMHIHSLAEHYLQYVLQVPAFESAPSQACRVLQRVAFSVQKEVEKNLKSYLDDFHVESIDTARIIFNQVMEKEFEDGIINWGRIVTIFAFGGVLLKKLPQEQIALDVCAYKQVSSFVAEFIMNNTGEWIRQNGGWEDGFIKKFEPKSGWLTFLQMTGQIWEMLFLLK
# [15] = microbe, parasite or virus in culture; assay type: functional; conditions: Mycobacterium tuberculosis
# [16] = target: T6, Calpain-2 catalytic subunit (Sus scrofa, UniProt P43367); test: pig calpain II inhibitor potency, dose response, biochemical, fluorogenic peptide substrate (AID 1420); assay type: functional
# T6 sequence (P43367 whole entry): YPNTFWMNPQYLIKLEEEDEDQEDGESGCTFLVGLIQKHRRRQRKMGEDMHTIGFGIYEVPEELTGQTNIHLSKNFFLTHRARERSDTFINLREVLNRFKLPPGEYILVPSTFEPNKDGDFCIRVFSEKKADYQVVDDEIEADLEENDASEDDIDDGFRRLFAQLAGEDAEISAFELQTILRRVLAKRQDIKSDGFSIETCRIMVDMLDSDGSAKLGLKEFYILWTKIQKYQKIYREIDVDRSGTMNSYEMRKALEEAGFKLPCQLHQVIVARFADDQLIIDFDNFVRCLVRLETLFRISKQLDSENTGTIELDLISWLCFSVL
# [17] = target: Mitochondrial peptide methionine sulfoxide reductase (Bos taurus, UniProt P54149); assay type: functional;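 further: absorbance read-out, biochemical high-throughput dose-response screen for MsrA inhibitors, confirmatory; recombinant bovine MsrA coupled to E. coli TrxB with NADPH and selenocystamine; potency is for inhibitors of MsrA activity on DMSO substrate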
# [18] = ARNT/TACC3 interaction disruptors, potency, confirmation, biochemical, AlphaScreen, cherry-picked samples (AID 651703); assay type: functional, Homo sapiens;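 further: His-tagged ARNT PAS-B domain paired with GST-TACC3 E629A dimer coactivator fragment; potency of inhibitors that break up the complex and lower AlphaScreen signal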
# [19] = target: Activin receptor type-1 (Homo sapiens, UniProt Q04771); test: Navigating the Kinome. Panel member name: ACVR1; assay type: functional
# [20] = target: Melanin-concentrating hormone receptor 1 (Homo sapiens, UniProt Q99705); test: Late-stage fluorescence-based counterscreen for antagonists of the G-protein coupled receptor 7 (GPR7): cell-based dose response assay to identify antagonists of the melanin-concentrating hormone receptor 1 (MCHR1) Set 5.; assay type: functional
# [21] = target: T7, Neuropeptides B/W receptor type 1 (Homo sapiens, UniProt P48145); test: GPR7 antagonist potency, late-stage follow-up, cell-based, fluorescence, dose response, set 5 (AID 588566); assay type: functional
# T7 sequence (P48145 whole entry): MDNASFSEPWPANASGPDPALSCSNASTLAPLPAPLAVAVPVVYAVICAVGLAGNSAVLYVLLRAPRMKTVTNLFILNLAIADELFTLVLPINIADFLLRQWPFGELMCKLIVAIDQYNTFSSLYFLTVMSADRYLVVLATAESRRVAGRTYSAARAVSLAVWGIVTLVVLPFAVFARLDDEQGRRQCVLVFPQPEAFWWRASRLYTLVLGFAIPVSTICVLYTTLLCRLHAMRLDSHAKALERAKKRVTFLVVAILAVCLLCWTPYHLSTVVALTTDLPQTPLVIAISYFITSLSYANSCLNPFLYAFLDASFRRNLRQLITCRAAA
# [22] = target: Ras and Rab interactor 1/Tyrosine-protein kinase ABL1 (Homo sapiens, UniProt P00519+Q13671); assay type: functional;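 further: biochemical TR-FRET dose-response test measuring inhibition of binding between Rin1 and Abl proteins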
# [23] = target: T8, Interleukin-8 (Homo sapiens, UniProt P10145); test: Dose Response confirmation of uHTS small molecule hits for cystic fibrosis induced NFkb Inhibitors in a TNFa-induced IL8 counterscreen.; assay type: functional; conditions: read-out: IC50_Mean
# T8 sequence (P10145 whole entry): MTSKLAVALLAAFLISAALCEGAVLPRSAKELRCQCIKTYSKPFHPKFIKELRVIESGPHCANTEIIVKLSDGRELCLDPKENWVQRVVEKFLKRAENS
# [24] = target: T8, Interleukin-8; test: Dose Response confirmation of uHTS small molecule hits for cystic fibrosis induced NFkb Inhibitors in a PAF-induced IL8 counterscreen.; assay type: functional; conditions: read-out: IC50_Mean
# Sequence of Melanin-concentrating hormone receptor 1 (Q99705 whole entry): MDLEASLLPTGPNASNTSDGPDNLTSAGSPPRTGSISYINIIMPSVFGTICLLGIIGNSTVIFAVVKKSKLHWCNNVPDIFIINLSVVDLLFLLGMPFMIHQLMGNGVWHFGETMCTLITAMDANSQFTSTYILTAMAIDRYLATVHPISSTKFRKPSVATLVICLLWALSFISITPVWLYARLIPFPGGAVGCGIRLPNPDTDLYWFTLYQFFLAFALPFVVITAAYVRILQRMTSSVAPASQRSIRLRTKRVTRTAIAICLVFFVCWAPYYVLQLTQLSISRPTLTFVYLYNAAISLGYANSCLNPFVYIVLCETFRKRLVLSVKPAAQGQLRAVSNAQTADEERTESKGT
# Sequence of Activin receptor type-1 (Q04771 whole entry): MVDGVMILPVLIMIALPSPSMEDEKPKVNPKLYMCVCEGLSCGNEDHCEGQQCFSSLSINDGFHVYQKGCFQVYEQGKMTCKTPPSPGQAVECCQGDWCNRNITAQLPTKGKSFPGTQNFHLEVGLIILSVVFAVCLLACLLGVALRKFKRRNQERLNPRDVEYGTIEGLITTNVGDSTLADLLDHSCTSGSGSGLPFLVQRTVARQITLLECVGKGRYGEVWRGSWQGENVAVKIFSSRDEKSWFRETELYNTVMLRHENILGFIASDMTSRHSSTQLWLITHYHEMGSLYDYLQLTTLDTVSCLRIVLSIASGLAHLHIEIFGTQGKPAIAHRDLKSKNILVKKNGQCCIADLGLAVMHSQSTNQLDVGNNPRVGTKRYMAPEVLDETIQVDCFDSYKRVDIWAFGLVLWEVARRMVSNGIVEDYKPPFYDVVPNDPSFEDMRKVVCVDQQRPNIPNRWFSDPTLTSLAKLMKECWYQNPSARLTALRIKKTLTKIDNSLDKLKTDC
# Sequence of DNA repair and recombination protein RAD54-like (Q92698 whole entry): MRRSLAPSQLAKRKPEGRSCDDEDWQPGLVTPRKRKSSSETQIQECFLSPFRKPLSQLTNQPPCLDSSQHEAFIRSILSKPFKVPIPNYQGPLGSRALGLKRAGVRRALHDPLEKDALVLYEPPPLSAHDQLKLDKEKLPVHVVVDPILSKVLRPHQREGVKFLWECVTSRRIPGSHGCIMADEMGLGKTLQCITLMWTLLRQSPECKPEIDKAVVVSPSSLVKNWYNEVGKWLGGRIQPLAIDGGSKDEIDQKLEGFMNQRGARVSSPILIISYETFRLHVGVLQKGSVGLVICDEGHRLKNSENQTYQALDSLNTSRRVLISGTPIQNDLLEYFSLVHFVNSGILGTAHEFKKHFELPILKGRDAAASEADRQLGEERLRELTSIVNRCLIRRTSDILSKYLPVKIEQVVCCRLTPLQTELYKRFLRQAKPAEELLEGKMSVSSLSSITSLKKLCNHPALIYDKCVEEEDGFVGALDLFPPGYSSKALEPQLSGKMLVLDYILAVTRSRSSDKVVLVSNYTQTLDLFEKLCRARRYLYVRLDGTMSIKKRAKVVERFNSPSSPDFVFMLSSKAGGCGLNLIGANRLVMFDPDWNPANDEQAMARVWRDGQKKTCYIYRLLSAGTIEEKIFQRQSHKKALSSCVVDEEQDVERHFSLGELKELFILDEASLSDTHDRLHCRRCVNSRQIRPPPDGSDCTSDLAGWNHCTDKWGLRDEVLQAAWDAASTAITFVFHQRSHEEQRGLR
# Sequence of Mitochondrial peptide methionine sulfoxide reductase (P54149 whole entry, the tested form may be a part): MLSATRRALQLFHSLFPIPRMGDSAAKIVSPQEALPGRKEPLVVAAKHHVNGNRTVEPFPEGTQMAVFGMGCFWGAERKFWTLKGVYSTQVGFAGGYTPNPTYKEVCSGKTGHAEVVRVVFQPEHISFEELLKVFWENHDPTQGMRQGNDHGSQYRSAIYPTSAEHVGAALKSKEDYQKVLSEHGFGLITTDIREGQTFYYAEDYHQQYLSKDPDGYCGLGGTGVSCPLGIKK
# Sequence of Ras and Rab interactor 1/Tyrosine-protein kinase ABL1 (P00519 whole entry): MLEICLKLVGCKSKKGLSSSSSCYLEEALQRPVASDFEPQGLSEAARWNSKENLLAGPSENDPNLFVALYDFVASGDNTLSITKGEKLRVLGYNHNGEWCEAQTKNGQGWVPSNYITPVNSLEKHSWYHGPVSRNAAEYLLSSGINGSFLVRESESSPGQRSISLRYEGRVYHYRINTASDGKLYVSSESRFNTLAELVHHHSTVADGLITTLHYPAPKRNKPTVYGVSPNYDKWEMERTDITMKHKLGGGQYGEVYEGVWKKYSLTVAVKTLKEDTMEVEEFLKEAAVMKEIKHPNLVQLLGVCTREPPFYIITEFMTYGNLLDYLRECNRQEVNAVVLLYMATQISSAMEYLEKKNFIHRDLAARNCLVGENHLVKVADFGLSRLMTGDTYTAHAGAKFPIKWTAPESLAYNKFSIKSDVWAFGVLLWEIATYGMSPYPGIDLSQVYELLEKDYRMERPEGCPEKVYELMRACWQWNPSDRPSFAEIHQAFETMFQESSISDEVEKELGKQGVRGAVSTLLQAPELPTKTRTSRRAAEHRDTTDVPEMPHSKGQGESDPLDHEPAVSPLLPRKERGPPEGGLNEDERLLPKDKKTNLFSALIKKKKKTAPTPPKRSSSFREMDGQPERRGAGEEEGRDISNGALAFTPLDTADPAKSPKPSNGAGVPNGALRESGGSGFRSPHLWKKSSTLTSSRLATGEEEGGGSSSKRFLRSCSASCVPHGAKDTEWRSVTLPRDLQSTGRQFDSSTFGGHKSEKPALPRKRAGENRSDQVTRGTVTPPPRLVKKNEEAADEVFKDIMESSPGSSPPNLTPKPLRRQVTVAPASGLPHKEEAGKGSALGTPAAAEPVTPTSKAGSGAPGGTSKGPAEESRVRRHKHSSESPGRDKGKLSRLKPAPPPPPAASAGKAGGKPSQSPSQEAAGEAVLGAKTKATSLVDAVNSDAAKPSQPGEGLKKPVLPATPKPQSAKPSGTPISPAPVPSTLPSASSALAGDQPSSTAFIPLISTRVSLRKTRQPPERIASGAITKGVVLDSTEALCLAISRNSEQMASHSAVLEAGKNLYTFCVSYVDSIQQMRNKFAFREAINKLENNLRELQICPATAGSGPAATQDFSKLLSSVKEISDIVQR
# Sequence of Ras and Rab interactor 1/Tyrosine-protein kinase ABL1 (Q13671 whole entry): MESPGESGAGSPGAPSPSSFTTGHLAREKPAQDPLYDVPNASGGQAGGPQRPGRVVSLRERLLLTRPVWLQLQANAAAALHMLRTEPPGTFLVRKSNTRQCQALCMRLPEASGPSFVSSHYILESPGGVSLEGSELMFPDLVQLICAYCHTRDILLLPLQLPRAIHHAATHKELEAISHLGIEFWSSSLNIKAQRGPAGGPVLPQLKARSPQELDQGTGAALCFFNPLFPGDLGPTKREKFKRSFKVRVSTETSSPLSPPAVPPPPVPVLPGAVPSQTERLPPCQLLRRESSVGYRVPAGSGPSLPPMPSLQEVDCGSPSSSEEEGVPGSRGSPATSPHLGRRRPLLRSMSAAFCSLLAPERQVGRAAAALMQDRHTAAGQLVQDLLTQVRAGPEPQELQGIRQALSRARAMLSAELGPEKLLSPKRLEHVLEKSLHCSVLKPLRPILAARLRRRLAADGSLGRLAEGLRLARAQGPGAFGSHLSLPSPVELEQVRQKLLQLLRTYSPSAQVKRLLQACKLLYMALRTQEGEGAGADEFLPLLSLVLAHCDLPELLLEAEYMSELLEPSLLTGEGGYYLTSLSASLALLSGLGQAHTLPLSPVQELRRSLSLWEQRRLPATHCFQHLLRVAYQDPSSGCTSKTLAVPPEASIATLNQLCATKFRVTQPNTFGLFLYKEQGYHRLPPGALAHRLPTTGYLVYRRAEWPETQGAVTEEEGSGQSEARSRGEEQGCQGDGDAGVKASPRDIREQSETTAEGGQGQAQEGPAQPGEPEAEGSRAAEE
smiles,measurement,setting,value
CN(C)CCN(C(=O)c1ccc2c(c1)OCCO2)c1nc2c(Cl)cccc2s1,AC50,[1],55.1 µM (active)
O=C(Nc1ccc(S(=O)(=O)NC2=NCCCCC2)cc1)c1ccc(Cl)cc1Cl,IC50,[2],7.42 µM (active)
same,IC50,[3],4.47 µM (active)
same,IC50,[4],0.864 µM (active)
NC1=NC[C@H](CC2CCCCC2)N1CCc1cc(C(F)(F)F)cc(C(F)(F)F)c1,EC50,[5],9.93 µM (active)
same,IC50,[6],17.2 µM (active)
same,EC50,[7],> 54.7 µM (inactive)
same,EC50,[8],65.2 µM (active)
same,EC50,[9],> 54.7 µM (inactive)
same,IC50,[10],10.9 µM (inactive)
same,IC50,[11],74.7 µM (active)
same,IC50,[12],14.6 µM (active)
same,EC50,[13],7.64 µM (active)
same,IC50,[14],> 20 µM (inactive)
same,CC50,[15],26 µM (active)
CCOC(=O)C(C)/C(C)=N\Nc1ccc([N+](=O)[O-])cc1[N+](=O)[O-] (stereo unspecified),IC50,[16],> 50 µM (not active)
same,IC50,[17],155 µM (inactive)
NC(=O)c1[nH]cnc1N,AC50,[18],90.5 µM (active)
C=CCn1c(=O)c2cnc(Nc3ccc(N4CCN(C)CC4)cc3)nc2n1-c1cccc(C(C)(C)O)n1 [ADAVOSERTIB],Ki,[19],> 3.98 µM (inactive)
O=C(C1CCCCN1C1c2ccccc2CCc2ccccc21)N1CCN(c2ccc([N+](=O)[O-])cc2)CC1 (stereo unspecified),IC50,[20],> 20 µM (inactive)
same,IC50,[21],> 20 µM (inactive)
CCOC(=O)C(C#N)c1c(Cl)cnn(C2c3ccccc3-c3ccccc32)c1=O (stereo unspecified),IC50,[20],7.86 µM (active)
same,IC50,[21],2.9 µM (active)
CC1(C)Cc2nc3sc4c(=O)[nH]cnc4c3cc2CS1,IC50,[22],> 0.302 µM (active)
Brc1ccc2ncnc(NCc3cccnc3)c2c1,IC50,[23],1.77 µM (active)
same,IC50,[24],4.61 µM (active)
